Counter-ions that a name gives are not always drawn. Marks after values point to notes of the source that are not given here.
Experiments:
[1] = tested on: ammonia water induced cough in ICR mice; assay: Antitussive test, cough induced by ammonia water in mice; type: in vivo, mouse
Experimental: • Animals: male ICR mice; • Drugs and reagents: dextromethorphan hydrobromide, ammonia water, 0.2% CMC-Na, protein BD-11; • Apparatus: Compressed nebulizer (403T type), balance (XS105DU type).
Experiment grouping: • Solvent control group; • Dextromethorphan 15 mg/kg group; • Protein BD-11, 20 mg/kg group, 50 mg/kg group.
Dextromethorphan and different doses of protein BD-11 (administration volume 10 ml/kg) were given orally in groups, and the solvent control group was given the same volume of distilled water. One hour later, mice were put into a sealed box and atomized 10% ammonia water for 10 seconds, and then observed and recorded the incubation period of cough in mice and the number of coughs in 2 minutes.
Record the time point of oral administration, the time point of atomization experiment, the incubation period of mice cough and the number of coughs within 2 minutes, respectively. The incubation period of cough refers to the number of seconds from the start of the atomization of ammonia to the occurrence of cough. The performance of coughing in mice is based on contraction of their abdominal muscles (breast contraction) and opening their mouths at the same time. Calculate the mean and standard error of each group of data, and use TTEST to compare the model group with other groups, and P<0.05 is considered as a significant difference.
Give dextromethorphan (15 mg/kg) and different doses of protein BD-11 (20 mg/kg, 50 mg/kg) in advance, One hour later, the mice were put into a sealed box and atomized 10% ammonia water for 10 seconds, and then the mice were observed and recorded the incubation period of coughing and the number of coughs within 2 minutes.

[2] = tested on: PLO-induced epilepsy in ICR mice; assay: Pilocarpine (PLO) induced convulsive epilepsy in mice; type: in vivo, mouse; design: mortality rate: unit not given here; settings: Diazepam 2 mg/kg
Experimental: • Animals: male ICR mice; • Drugs: Pilocarpine HCl (PLO, pilocarpine, pilocarpine hydrochloride), Diazepam (diazepam tablets), protein BD-11.
Experiment grouping: • Model group: • Diazepam 2 mg/kg group; • Protein BD-11, 50 mg/kg group, 200 mg/kg group.
The drug was administered once in the afternoon the day before modeling, PLO-225 mg/kg (modeling agent) was injected intraperitoneally 1 hour after the test drug was administered intragastrically on the day of modeling. And positive drug can be administered once 20 minutes before modeling. Observe for 30 minutes after PLO injection.
Observation indicators: ①Seizure situation: the time of seizures from Grade II to Grade IV; (2)the time to death.
(§1) Seizure grade: Refer to Racine grading standard: Grade 0: No response; Grade I: manifested as twitching of facial muscles or the corners of the mouth; Grade II: can nod; Grade III: twitching of one limb; Grade IV: rigidity or body twitching; Grade V: generalized epilepsy (generalized tonic seizures).
Count the number of Grade IV seizures and deaths in each group of mice in the experiment; Grade II, III and IV incubation period. […] Chi-square test was used for statistics of the number of cases. The mean value and standard error of the incubation period were calculated, and TTEST was used to compare the model group with other groups. P<0.05 was considered as a significant difference.

[3] = tested on: PTZ-induced epilepsy in ICR mice; assay: Pentylenetetrazole (PTZ) induced epilepsy in mice; type: in vivo, mouse; settings: Retigabine 60 mg/kg
Experimental: • Animals: male ICR mice; • Medicines: Pentylenetetrazol (PTZ), Retigabine, Protein BD-11.
Experiment grouping: • Model group; • Retigabine 60 mg/kg group; • Protein BD-11, 50 mg/kg group, 200 mg/kg group;
The drug was administered once in the afternoon the day before modeling, On the day of modeling, PTZ-65 mg/kg (modeling agent) was injected intraperitoneal 1 hour after the test drug was administered intragastrically, and the positive drug can be administered once half an hour before modeling. Continue to observe for 15 minutes after injection of PTZ.
Observation index: ①Seizure situation: the time of seizures from Grade III to […]; ②Death situation
as §1
Count the cases of seizures and deaths in each group of mice in the experiment; Grade III and IV incubation period. The incubation period of mice that have not attacked to Grade IV is recorded as the maximum of 900 seconds. Chi-square test was used for statistics of the number of cases. Calculate the mean and standard error of the incubation period. Use TTEST to compare the model group with other groups, and P<0.05 is considered as a significant difference.

[4] = tested on: lipopolysaccharide (LPS) induced fever in SD rats; assay: Lipopolysaccharide (LPS) induced fever model in SD rats; type: in vivo, rat; settings: aspirin 300 mg/kg oral
Experimental: • Animals: 230-260 grams of male SD rats; • Drugs: lipopolysaccharide (LPS, SIGMAL-2880), aspirin (SIGMA A2093), protein BD-11; • Instruments: electronic balance (SARTORIUS BP121S type), electronic clinical thermometer (CITIZEN CT-513W type).
Experiment grouping: • Normal control group; • Model group: lipopolysaccharide fever model; • Positive control group: Aspirin 300 mg/kg group; • Protein BD-11, 10 mg/kg group, 50 mg/kg group. Method: the method of intraperitoneal injection of Lipopolysaccharide to replicate rat fever model.
(§2) Preparation of experimental animals: After the experimental animals adapt to the experimental environment (temperature 22° C.±2° C., relative humidity 50%±2%) for 1 day. Pre-adaptation to measure rectal temperature at 8:00 and 15:00, rats were fasted and water was taken freely 12 h before experiment, and let the animal to empty its feces before measuring the rectal temperature. Apply petroleum jelly to the electronic thermometer probe before each temperature measurement. Insert the rat rectum 2 cm (can be marked at 2 cm to ensure that the depth of each insertion is consistent), and record the body temperature after the reading is stable.
Intraperitoneal injection of lipopolysaccharide to replicate rat fever model: The body temperature of the rats was measured before modeling. Qualified rats with a body temperature of 36.2-37.3° C. were selected and randomly divided into groups with 8 rats in each group. After oral administration of aspirin and different doses of protein BD-11, lipopolysaccharide (20 µg/kg, 2 ml/kg) was injected intraperitoneally immediately, and the normal control group was injected intraperitoneally with an equal volume of normal saline. The body temperatures of the rats were monitored after 2 hours for a total of 8 hours.
(§3) According to the body temperature measured at each time point on the day of the experiment, calculate the mean, standard deviation and standard error of the body temperature of each group of rats. The data of each group was compared with TTEST, and P<0.05 was considered as a significant difference.
Immediately after oral administration of aspirin (300 mg/kg), protein BD-11 (10 mg/kg, 50 mg/kg), intraperitoneal injection of 20 µg/kg lipopolysaccharide was performed to establish a model. The animal body temperature was monitored at 2 hours, 4 hours, 6 hours, and 8 hours after modeling.

[5] = tested on: acetic acid writhing in ICR mice; assay: Acetic acid writhing test in ICR mice; type: in vivo, mouse
Experimental: • Animals: male ICR mice; • Drugs and reagents: aspirin, physiological saline, glacial acetic acid, protein BD-11.
Experiment grouping: • Model group; • Aspirin 300 mg/kg group; • Protein BD-11, 50 mg/kg group, 200 mg/kg group.
One day after the experimental animals adapt to the environment, Aspirin 300 mg/kg, protein BD-11 50 mg/kg, 200 mg/kg were given orally one hour in advance, and the administration volume was 10 ml/kg; Then, 0.6% acetic acid solution was injected intraperitoneally, and the incubation period (seconds) and frequency of writhing in the animal was observed within 15 minutes.
Calculate the mean and standard error of the data in each group. Compared with the model group by TTEST, P<0.05 was considered as statistically different.
One hour after oral administration of aspirin 300 mg/kg and different doses of protein BD-11 (50 mg/kg, 200 mg/kg), 0.6% acetic acid solution was intraperitoneally injected to observe the writhing incubation period and frequency of ICR mice.
0.6% acetic acid solution was injected into the abdominal cavity of mice, which caused deep and large area and long-term painful stimulation, causing the mice to writhe (the abdomen was contracted into an “S” shape, the trunk and hind legs were stretched, the buttocks were raised and creeping). The incubation time to start writhing and times of writhing in mice were used as the pain response indexs to determine whether the test sample had analgesic effect. […] Compared with the model group, P<0.05, which is statistically significant.

[6] = tested on: yeast-induced fever model in SD rats; assay: Yeast-induced fever model in SD rats; type: in vivo, rat; settings: aspirin 300 mg/kg oral
Experimental: • Animals: 230-260 grams of male SD rats;; • Drugs: yeast (OXOID LP0021), aspirin (SIGMA A2093), protein BD-11; • Instruments: electronic balance (SARTORIUS BP121S type), electronic clinical thermometer (CITIZEN CT-513W type).
Experiment grouping: • Normal control group; • Model group: yeast fever model; • Positive control group: Aspirin 300 mg/kg group; • Protein BD-11, 10 mg/kg group, 50 mg/kg group.
as §2
Subcutaneous injection of dry yeast to replicate rat fever model: The body temperature of the rats was measured before modeling. Qualified rats with a body temperature of 36.2-37.3° C. were selected and randomly divided into groups with 8 rats in each group. After oral administration of aspirin and different doses of protein BD-11, 20% yeast suspension (10 ml/kg) was injected subcutaneously immediately, and the normal control group was injected intraperitoneally with an equal volume of normal saline. The body temperatures of the rats were monitored after 2 hours for a total of 8 hours.
as §3
Immediately after oral administration of aspirin (300 mg/kg), protein BD-11 (10 mg/kg, 50 mg/kg), subcutaneous injection of 20% yeast was performed to establish a model. The animal body temperature was monitored at 2 hours, 4 hours, 6 hours, and 8 hours after modeling.

[7] = 2, 4, 6 and 8 hours after modeling, P<0.05 vs model group
[8] = Aspirin 300 mg/kg, P<0.05 vs model group

COc1ccc2c(c1)[C@]13CCCC[C@@H]1[C@H](C2)N(C)CC3 [Dextromethorphan, dextromethorphan hydrobromide, reference compound]
Incubation period (cough) ([1]; Dextromethorphan 15 mg/kg oral, 10% ammonia water 10 s, X±SEM, n=9): 38.4 ± 4.5 s
Number of coughs ([1]; Dextromethorphan 15 mg/kg oral, within 2 minutes, X±SEM, n=9): 34.0±2.9
Incubation period and number of coughs vs solvent control group ([1]; dextromethorphan 15 mg/kg, P<0.05): significant improvement

CN1C(=O)CN=C(c2ccccc2)c2cc(Cl)ccc21 [Diazepam, reference compound]
Cases of deaths ([2]; PLO 225 mg/kg i.p., 10 mice): 0
Grade IV seizure rate ([2]; PLO 225 mg/kg i.p., 10 mice): 0**
mortality rate ([2]; PLO 225 mg/kg i.p., 10 mice): 0
Cases of Grade IV ([2]; PLO 225 mg/kg i.p., 10 mice, 30 min observation): 0**
Grade II seizure incubation period ([2]; PLO model, mean±SEM): 109 ± 8 s
Grade III seizure incubation period ([2]; PLO model, mean±SEM): 182 ± 14 s
Grade IV seizure incubation period ([2]; PLO model, mean±SEM, no Grade IV recorded as maximum 1800 s): 1800 ± 0 s

CCOC(=O)Nc1ccc(NCc2ccc(F)cc2)cc1N [Retigabine, reference compound]
Cases of deaths ([3]; PTZ 65 mg/kg i.p., 10 mice): 0
Grade IV seizure rate ([3]; PTZ 65 mg/kg i.p., 10 mice): 20%**
mortality rate ([3]; PTZ 65 mg/kg i.p., 10 mice): 0
Cases of Grade IV ([3]; PTZ 65 mg/kg i.p., 10 mice, 15 min observation): 2**
Grade III seizure incubation period ([3]; PTZ model, mean±SEM): 83 ± 7 s
Grade IV seizure incubation period ([3]; PTZ model, mean±SEM, no Grade IV recorded as maximum 900 s): 745 ± 103 s

CC(=O)Oc1ccccc1C(=O)O [aspirin, reference compound]
Effect on the increase in body temperature of model rats [4, 7]: can effectively inhibit the increase in body temperature
Body temperature 2 hours after modeling ([4]; 2 h after LPS 20 µg/kg i.p., n=8): 36.8 ± 0.1 °C
Body temperature 4 hours after modeling ([4]; 4 h after LPS 20 µg/kg i.p., n=8): 36.9### °C
Body temperature 6 hours after modeling ([4]; 6 h after LPS 20 µg/kg i.p., n=8): 36.8## °C
Body temperature 8 hours after modeling ([4]; 8 h after LPS 20 µg/kg i.p., n=8): 36.9±0.1 °C
Effect on incubation period of writhing [5, 8]: significantly delay
Effect on times of writhing [5, 8]: reduce the times of writhing
Writhing incubation period ([5]; aspirin 300 mg/kg oral, 0.6% acetic acid i.p., n=13): 290.3 ± 37.0 s
Frequency of writhing ([5]; aspirin 300 mg/kg oral, within 15 minutes, n=13): 15.2 ± 2.9 times
Effect on the increase in body temperature of model rats [6, 7]: can effectively inhibit the increase in body temperature
Body temperature 2 hours after modeling ([6]; 2 h after 20% yeast s.c., n=8): 37.0 ±0.1 °C
Body temperature 4 hours after modeling ([6]; 4 h after 20% yeast s.c., n=8): 37.0±0.1 °C
Body temperature 6 hours after modeling ([6]; 6 h after 20% yeast s.c., n=8): 37.0±0.1 °C
Body temperature 8 hours after modeling ([6]; 8 h after 20% yeast s.c., n=8): 37.0±0.1 °C
